# In patent publication US20190030036A1, “PHOSPHODIESTERASE INHIBITOR TREATMENT” (Cyrano Therapeutics, Inc., priority 2013, published 2019):
# Marks after values point to notes of the source that are not given here.
# Test system: patients with hyposmia
# Test: Smell function (DT, RT, ME, H) by forced-choice, three-stimuli, stepwise-staircase technique with four odors; open trial of oral theophylline
# Assay type: in vivo, human
# From the text: Patients initially reported their sensory dysfunction as either loss of taste (e.g., flavor) and/or smell function. This subjective response was documented by objective psychophysical measurements of olfactory function administered to each patient by use of a forced-choice, three-stimuli, stepwise-staircase technique in a fixed, controlled design (1, 53). Efficacy of this technique and results of testing were previously documented in a double-blind clinical trial (53). Four odors were used; they were pyridine (dead-fish odor), nitrobenzene (bitter-almond odor), thiophene (petroleum-like odor) and amyl acetate (banana-oil odor). Detection thresholds (DT), recognition thresholds (RT) and magnitude estimation (ME) values for each odor were determined as previously described (1, 53). Thresholds were converted into bottle units (BU) as previously described (53) and results reported as M±SEM of correct responses for each odor in each treatment group; ME was reported in % and results calculated to obtain M±SEM for each treatment group for all correct responses using data for the four highest odor concentrations presented (from 10^−2M—an absolute odor concentration).
# In addition, each patient graded the hedonic (H) value of each odor presented for these same odor concentrations (from 10^−2M—an absolute odor concentration using a −100−0−+100 scale). […] Results were obtained by calculating the arithmetical sum of each correct recognition response for each odor with respect to its pleasantness, unpleasantness or neutrality. Arithmetic M±SEM were obtained for each treatment group for each odor presented.
# After determination of hyposmia, patients were treated in an open label, fixed design, controlled open trial. Patients were given an oral extended release theophylline in divided daily doses taken in the middle of breakfast and lunch. All patients were initially given 200 mg of theophylline; changes in this dose were made based upon subjective responses to therapy. If at a subsequent return visit, patients reported ≥5% subjective improvement in overall smell function, they continued on this same dose of theophylline and were reevaluated after four to six months of continued treatment. Results from any subsequent return from these improved patients were not included in any subsequent data report. All subsequent comparisons between treated and untreated patients were made only between those patients continuing in the study compared to their own measurements obtained in the untreated state. If patients reported <5% subjective improvement, their theophylline dose was increased by 200 mg daily and they were scheduled for retesting at the study site after two to four months at this new dosage. For patients that reported <5% improvement, this sequence continued until patients reached 800 mg of theophylline, at which time the study was considered completed.
# Patients returned for reevaluation after two to four months of treatment. Measurements of blood serum theophylline were measured by a fluorescence polarization assay (Abbott, Chicago, Ill.). At this time, subjective changes in smell function were measured independently (compared to patient's memory of previous normal smell function monitored by use of the patients' daily measurements) using the scale from −100−0-+100 previously described. After independently recording their subjective responses, smell function was measured for all four odors with DT, RT, ME and H determined without recourse to prior measurements.
# Since data for all measurements from each patient group (local or distant) on each dose level were combined mean and SEM for each measurement (DT, RT, ME, H) of smell function for each treatment group were calculated on this basis. Differences in measurements between before treatment and each treatment level were calculated and significance of differences estimated using Student t tests (values p<0.05 considered significant). […]
# [1] = pyridine, oral theophylline 200 mg
# [2] = pyridine, oral theophylline 200 mg daily, all patients (199)
# [3] = pyridine, oral theophylline 200 mg, Type I hyposmia (57)
# [4] = pyridine, oral theophylline 200 mg, Type II hyposmia (138)
# [5] = pyridine, oral theophylline 200 mg, Type III hyposmia (4)
# [6] = pyridine, oral theophylline 400 mg
# [7] = pyridine, oral theophylline 400 mg daily, all patients (120)
# [8] = pyridine, oral theophylline 400 mg, Type I hyposmia (33)
# [9] = pyridine, oral theophylline 400 mg, Type II hyposmia (85)
# [10] = pyridine, oral theophylline 400 mg, Type III hyposmia (2)
# [11] = pyridine, oral theophylline 600 mg daily, all patients (160)
# [12] = pyridine, oral theophylline 600 mg, Type I hyposmia (51)
# [13] = pyridine, oral theophylline 600 mg, Type II hyposmia (105)
# [14] = pyridine, oral theophylline 600 mg, Type III hyposmia (4)
# [15] = pyridine, oral theophylline 800 mg daily, all patients (28)
# [16] = pyridine, oral theophylline 800 mg, Type I hyposmia (12)
smiles,measurement,setting,value
Cn1c(=O)c2[nH]cnc2n(C)c1=O [theophylline],total mean increase of ME for all odors,oral theophylline 600 mg,6.9%
same,decrease of H for pyridine,oral theophylline 800 mg daily,55%
same,decrease of H for thiophene,oral theophylline 800 mg daily,37%
same,increase of H for amyl acetate,oral theophylline 800 mg daily,about 50%
same,increase of H for nitrobenzene,oral theophylline 800 mg daily,about 50%
same,decrease of H values,[1],2%
same,increase of ME values,[1],6%
same,"DT, detection threshold",[2],7.6 ± 0.2^a BU
same,"H, hedonic estimation",[2],−22 ± 2^a %
same,"ME, magnitude estimation",[2],28 ± 2^a %
same,"RT, recognition threshold",[2],9.0 ± 0.2^a BU
same,"DT, detection threshold",[3],9.5 ± 0.2^ BU
same,"H, hedonic value",[3],−8 ± 2^a %
same,"ME, magnitude estimation",[3],11 ± 2^a %
same,"RT, recognition threshold",[3],11.0 ± 0.2^a BU
same,"DT, detection threshold",[4],6.9 ± 0.2^ BU
same,"H, hedonic value",[4],−28 ± 2^ %
same,"ME, magnitude estimation",[4],35 ± 2^ %
same,"RT, recognition threshold",[4],8.2 ± 0.2^a BU
same,"DT, detection threshold",[5],4.0 ± 0.6 BU
same,"H, hedonic value",[5],−40 ± 13%
same,"ME, magnitude estimation",[5],45 ± 11%
same,"RT, recognition threshold",[5],5.2 ± 0.5 BU
same,ME increases,[6],12%
same,increases in H values,[6],9%
same,"DT, detection threshold",[7],7.0 ± 0.3^c BU
same,"H, hedonic estimation",[7],−26 ± 3^b %
same,"ME, magnitude estimation",[7],33 ± 3^a %
same,"RT, recognition threshold",[7],8.5 ± 0.3^a BU
same,"DT, detection threshold",[8],8.8 ± 0.5^ BU
same,"H, hedonic value",[8],−7 ± 3^a %
same,"ME, magnitude estimation",[8],12 ± 3^a %
same,"RT, recognition threshold",[8],10.6 ± 0.4^ BU
same,"DT, detection threshold",[9],6.3 ± 0.3^a BU
same,"H, hedonic value",[9],−34 ± 3^ %
same,"ME, magnitude estimation",[9],41 ± 3^a %
same,"RT, recognition threshold",[9],7.7 ± 0.3^a BU
same,"DT, detection threshold",[10],5.0 BU
same,"H, hedonic value",[10],−40%
same,"ME, magnitude estimation",[10],45%
same,"RT, recognition threshold",[10],5.0 BU
same,"DT, detection threshold",[11],7.4 ± 0.2^c BU
same,"H, hedonic estimation",[11],−19 ± 2^ %
same,"ME, magnitude estimation",[11],26 ± 2^d %
same,"RT, recognition threshold",[11],9.4 ± 0.2^c BU
same,"DT, detection threshold",[12],8.9 ± 0.3^b BU
same,"H, hedonic value",[12],−8 ± 2^a %
same,"ME, magnitude estimation",[12],11 ± 3^a %
same,"RT, recognition threshold",[12],10.9 ± 0.3^ BU
same,"DT, detection threshold",[13],6.7 ± 0.3^a BU
same,"H, hedonic value",[13],−25 ± 3^ %
same,"ME, magnitude estimation",[13],33 ± 2^ %
same,"RT, recognition threshold",[13],8.9 ± 0.3^ BU
same,"DT, detection threshold",[14],3.8 ± 0.9 BU
same,"H, hedonic value",[14],−26 ± 22%
same,"ME, magnitude estimation",[14],41 ± 15%
same,"RT, recognition threshold",[14],5.5 ± 0.9 BU
same,"DT, detection threshold",[15],6.9 ± 0.6 BU
same,"H, hedonic estimation",[15],−22 ± 6%
same,"ME, magnitude estimation",[15],29 ± 5%
same,"RT, recognition threshold",[15],8.5 ± 0.6^c BU
same,"DT, detection threshold",[16],9.6 ± 0.8^ BU
same,"H, hedonic value",[16],−11 ± 5^a %
same,"ME, magnitude estimation",[16],10 ± 4^a %
same,"RT, recognition threshold",[16],10.3 ± 1.0^ BU
same,"DT, detection threshold","pyridine, oral theophylline 800 mg, Type II hyposmia (16)",4.7 ± 0.7^a BU
